The values below come from PubChem BioAssay AID463229 (Broad Institute, 2010).

Activity calls are given as the source filed them.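 The calls were made as follows: active = compounds raising the signal whose fitted half-maximal concentration is at or below their top tested dose (cut at about 25 µM in these data); inconclusive = flat fit at 30 to 70% activity, or a poor fit; inactive = the rest.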

The test has as its system INS-1E rat beta cells, no cytokines, CellTiter-Glo ATP, 48 h. Nature of the test: cytokine-free beta-cell viability effect – INS-1E rat cells, ATP luminescence, cherry pick, counter-screen for beta-cell apoptosis protection project, dose response (AID 463229).
As for `COC1=CC(=O)[C@]2(C=C1OC)OC[C@@H]1Oc3c(ccc4c3C=CC(C)(C)O4)C(=O)[C@@H]12`, the AC50 (commonly the concentration at which the activity in the assay is half-maximal) is 1.07 µM.
In the case of `CCCn1c(Nc2nc3ccccc3n2C)nc2ccccc21` it was 7.26 µM; in that of `CCC1CCCCN1S(=O)(=O)c1ccc(NC(=O)c2nc(S(C)(=O)=O)ncc2Cl)cc1` (configuration not stated), 8.01 µM; in that of `O=C(/C=C/c1ccc(F)cc1)NC(=S)NNC(=O)c1cnccn1`, 5.29 µM.
With `COc1ccc(S(=O)(=O)N(C(=O)c2ccco2)c2cc3sc(=O)oc3c3ccccc23)cc1`, the AC50 is 14.5 µM.
Turning to `CCCNC(=O)c1ccc2c(=O)c(O)c(-c3ccc(C)cc3)[nH]c2c1`, the AC50 was 8.71 µM.
Take `O=C(Nc1ccc(-c2noc(-c3cccs3)n2)cc1)c1cccnc1`: the AC50 was 13 µM.
Under `COc1cccc(N=Nc2ccc(O)c3ncccc23)c1` stands 6.47 µM; under `O=C(Nc1cccnc1)c1cccs1`, 1.86 µM.
Regarding `Cn1nc(C(C)(C)C)cc1C(=O)NCc1ccc2c(c1)OCO2`, the AC50 is 4.47 µM.
Under `CCn1c(SCC(=O)Nc2cc(C)on2)nc2sc3c(c2c1=O)CCCC3` stands 16.7 µM.
For the molecule `Cc1ccc(O)c(N=Nc2nccs2)c1`, the AC50 is 7.04 µM.
In the case of `CS(=O)(=O)c1ncc(Cl)c(C(=O)Nc2ccc(OC(F)F)cc2)n1` it was 11.6 µM.
In the case of `CCC(C)Sc1ccc(-c2nc3ccc(C)cn3c2NCc2ccccc2)cc1OC` (configuration not stated) it was 6.46 µM.
Under `C#CCOCCOCCOCCNc1nc(N2CCN(C(=O)CCCCCCCCCCNC(=O)[C@H]([C@@H](C)CC)n3cc(CCCCCN)nn3)CC2)nc(N2CCN(C(=O)CCCCCCCCCCNC(=O)[C@H]([C@@H](C)CC)n3cc(CCCCN=C(N)N)nn3)CC2)n1` stands 6.72 µM; under `COc1ccc(C(=O)NN/C(C)=C/C(=O)C(F)(F)C(F)(F)C(F)(F)F)cc1`, > 26 µM (inactive).
As for `O=C(N/N=C(\c1ccccc1)c1cccnc1)c1cccc(F)c1`, the AC50 was 2.56 µM.
In the case of `COC(/C(=N/O)c1ccc(Cl)cc1)c1ccccc1` (configuration not stated) it was 2.66 µM.
Under `O=C(N/N=C\c1ccc([N+](=O)[O-])s1)c1cncc(Br)c1` stands 6.53 µM.
`CCC(=O)NC(c1ccccc1OC)c1ccc2cccnc2c1O` (configuration not stated): the AC50 was 4.29 µM.
Turning to `O=C(/C=C/c1cccc([N+](=O)[O-])c1)c1ccc([N+](=O)[O-])o1`, the AC50 is 3.95 µM.
In the case of `CC1CCc2c(sc3nc(C4CC4)nc(N4CCN(C(=O)c5ccco5)CC4)c23)C1` (configuration not stated) it was 3.01 µM; in that of `COc1cc(C(=O)NC(=S)NNC(=O)c2cnccn2)cc(OC)c1OC`, 7.66 µM; in that of `O=C(N/N=C/c1cc(Br)ccc1O)C(=O)Nc1ccccc1OC(F)(F)C(F)F`, 6.77 µM.
Turning to `COc1cccc(/C=N/NC(=O)c2ccoc2C)c1O`, the half-maximal activity concentration (AC50) is 11 µM.
Take `Cc1cc(C)nc(SCc2ccc(C(=O)N/N=C/c3cccc(O)c3O)cc2)n1`: the AC50 was 8.06 µM.
Under `Oc1ccc(N=Nc2ccccc2C(F)(F)F)c2cccnc12` stands 3.18 µM; under `COC(=O)C1CN(C#N)N(c2ccc(Cl)cc2)C12c1ccccc1-c1ccccc12` (configuration not stated), 4.26 µM.
In the case of `Oc1c(C(Nc2ccccn2)c2cccnc2)cc(Cl)c2cccnc12` (configuration not stated), the AC50 is 7.48 µM.
As for `Clc1ccc(C(Cn2ccnc2)OCc2csc3c(Cl)cccc23)c(Cl)c1` (configuration not stated), the AC50 was 14.6 µM.
As for `Cn1nccc1C(=O)N/N=C/c1c(O)ccc2ccccc12`, the AC50 is 3.54 µM.
Consider `Nc1c(Cl)ncnc1N/N=C/c1ccc2ccccc2n1`, for which the half-maximal activity concentration (AC50) is 4.38 µM.
For `S=C(NCCCN1CCOCC1)N1CCN(c2nc(-c3ccc(Cl)cc3)cs2)CC1`, the AC50 was 12.9 µM.
For `COc1ccc2nc(C)cc(SCC(=O)N/N=C/c3ccc(O)cc3O)c2c1`, the AC50 was 17.4 µM.
Take `CCCCCCc1cc2cc(C(=O)Nc3ccccc3)c(=O)oc2cc1O`: the AC50 was 3.24 µM.
With `NCCCn1c(C(=O)c2cc(Cl)c(N)c(Cl)c2)c2ccc([N+](=O)[O-])cc2[n+]1[O-]`, the AC50 was 5.34 µM.
As to `Cc1cc(C)cc(Oc2cc(NC(=O)c3cn(C)nc3C)cc([N+](=O)[O-])c2)c1`, the half-maximal activity concentration (AC50) was 2.58 µM.
In the case of `Cc1cccc(NC2=C/C(=N/S(=O)(=O)c3cccs3)c3ccccc3C2=O)c1` it was 3.97 µM; in that of `Cc1cc(Nc2cccc(Cl)c2)nc(NCc2ccccc2)n1`, 6.46 µM; in that of `COC(=O)c1ccc(NC(=O)c2nc(S(=O)(=O)Cc3cccc(C)c3)ncc2Cl)cc1`, 10.8 µM.
For the molecule `Cc1ccc(Nc2cc(C)nc(NCc3ccccc3)n2)cc1`, the AC50 was 8.01 µM.
With `Fc1ccccc1N=C1NN=C(c2ccccc2)CS1`, the AC50 was 4.95 µM.
Under `CC(=O)OC1COC(OC2C(O)C(C)OC(OC3C(OC4CCC5(C)C(CCC6(C)C5CC=C5C7CC(C)(C)CCC7(C(=O)O)CCC56C)C4(C)CO)OCC(O)C3O)C2O)C(O)C1OC(C)=O` (configuration not stated) stands 7.09 µM; under `CCCCNC1=CC(=O)C(=O)c2ccccc21`, 7.75 µM; under `Cc1ccc2nc(NC(=O)/C=C/c3ccc4c(c3)OCO4)sc2c1`, 7.35 µM.
In the case of `CN(C)c1cc[n+](Cc2c(Cl)cccc2Cl)cc1` it was 6.3 µM.
In the case of `CC(=O)N1CCCc2cc(S(=O)(=O)N3CCCC(C(=O)N4CCN(c5cccc(Cl)c5)CC4)C3)ccc21` (configuration not stated) it was 7.05 µM.
As for `Cn1c(SCC(=O)N/N=C/c2ccc([N+](=O)[O-])s2)nnc1-c1ccccc1`, the concentration at half-maximal activity (AC50) is 5.11 µM.
In the case of `COc1ccc(-n2c(-c3ccc(Br)cc3)c[n+]3c2CCc2ccccc2-3)cc1` it was 1.86 µM; in that of `c1ccc2c(CN3CCCCCC3)c[nH]c2c1`, 3.61 µM; in that of `Nc1c(C(=O)Nc2ccc(S(=O)(=O)N3CCCC3)cc2)sc2nc3ccc(OC(F)(F)F)cc3cc12`, 5.29 µM.
Take `COc1ccc(OC)c2[nH]c(C(=O)N/N=C/c3ccccc3O)cc12`: the AC50 is 7.58 µM.
Under `Cc1ccc(NC(=O)Cn2c(O)c(N=NC(=O)c3cc4ccccc4cc3O)c3ccccc32)cc1` stands 8.15 µM; under `Oc1ccc(-[n+]2c(-c3ccccc3)cc(-c3ccccc3)cc2-c2ccccc2)cc1`, 3.96 µM; under `COc1cc(/C=C(/C(=O)c2cccs2)c2nc3ccccc3[nH]2)ccc1O`, 12.9 µM.
Under `COc1ccc(C(=O)N/N=C/c2cc(Br)ccc2O)cc1OC` stands 7.2 µM.
In the case of `CCOC(=O)c1cnc(-n2nc(C)cc2C)nc1NC1CCCC1` it was 2.38 µM; in that of `Cn1nccc1C(=O)NC1CCCc2c1cnn2-c1ccc(F)cc1F` (configuration not stated), 2.48 µM.
Consider `C=C[C@H](CC(C)C)N(Cc1ccccc1)S(=O)(=O)N(Cc1ccccc1)[C@@H](C=C)CC(C)C`, for which the AC50 is 5.72 µM.
Regarding `Cc1ccc(-c2cc(-c3ccc(C)cc3)[n+](-c3ccccc3)c(-c3ccc(C)cc3)c2)cc1`, the AC50 is 0.577 µM.
In the case of `O=C(/C=C/c1ccccc1)NC(=S)NNC(=O)c1cnccn1` it was 5.91 µM; in that of `COc1cc(Br)cc(/C=N/NC(=O)Cc2ccc(C(F)(F)F)cc2[N+](=O)[O-])c1O`, 14.7 µM; in that of `CCCCCc1nc2c(c(=O)c3ccccc3n2C)c(=O)n1C1CCCCCC1`, 6.84 µM.
`CCCCCCCCn1ccc(=N)cc1`: the AC50 is 0.65 µM.
In the case of `O=C(COC(=O)c1cn(-c2ccccc2)nc1-c1ccccc1)c1cccc([N+](=O)[O-])c1` it was 2.8 µM; in that of `CCCCCCSc1cc(-c2nc3ccc(C)cn3c2NCc2ccccc2)ccc1OC`, 6.2 µM.
Under `O=c1[nH]c(=O)n(Cc2ccco2)c2c1C(C(F)(F)F)(C(F)(F)F)N=C(c1ccc(F)cc1)N2` stands 1.39 µM.
